Patent publication US10947271B2, “Antibacterial agents” (THE UNIVERSITY OF QUEENSLAND, priority 2014, dated 2021)

Assays:
[1] = test system: Streptococcus pneumoniae MDR ATCC 700677; assay: MIC assay, S. pneumoniae MDR ATCC 700677; format: cell-based; conditions: 24 h incubation, visual reading
Summary of the method: (§1)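 Overnight MHB cultures at 37° C were diluted 40-fold and grown 2-3 hrs to mid-log, then added at 5×10e5 CFU/mL to twofold compound dilutions (8 to 0.003 μg/ml). Plates were incubated 24 h at 37° C and MIC scored by eye.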

[2] = test system: Staphylococcus aureus MRSA ATCC 43300; assay: MIC assay, S. aureus MRSA ATCC 43300; format: cell-based; conditions: 24 h incubation, visual reading
Summary of the method: as §1

[3] = Stability of compounds in human plasma; conditions: 50% human plasma/PBS pH 7.4, 37° C.
Description: Briefly test compounds (20 μM) were prepared from a 1 mM stock solution. The human plasma sample (200 μl) was diluted with 160 μl phosphate-buffer saline (PBS, pH 7.4) to a concentration of 50% v/v before use. Solutions were then vortexed and placed on a 37° C. shaker and shaken gently for 10 minutes. 40 μl of the test compounds were then added to the plasma sample and vortexed. For the reaction time t=0 hour, 50 μl of sample was immediately transferred into an eppendorf tube and quenched with 150 μl cold acetonitrile. The remaining plasma solution was incubated and shaken at 37° C. Other samples were collected at time points of 0, 1, 3, 6 and 24 hours whereby 50 μl aliquots were removed and quenched with 150 μl cold acetonitrile. All samples were placed in a 4° C. fridge for 10 minutes then centrifuged at 3000 rpm for 15 minutes. The supernatant (100 μl) was transferred to a glass vial insert for LCMS analysis. The percentage of test compounds remaining at the individual time points relative to sample at time point 0 hour were reported.
Plasma: Human Plasma (Pooled Normal Human Plasma Heparin Anticoagulant 50 mL (IPLA-2 N-04 lot IR09-1001, originally from Innovative Research and imported by BioCore).
All compounds in 100% water (40 μL in 400 μL assay volume equivalent […])
Compounds: 40 μL of the vancomycin derivative solution was added to 160 μL of PBS (pH 7.4) respectively in an Eppendorf tube. 600 μL of cold acetonitrile was added, the tube vortexed and transferred to a glass vial for LC-MS analysis.
Eucatropine: 200 μL of plasma and 190 μL of buffer were vortexed, shaken at 37° C. for 10 minutes. 10 μL of eucatropine solution was then added and the tube vortexed. A 50 μL aliquot was immediately transferred to an Eppendorf tube, 150 μL of cold acetonitrile added and the tube transferred to a 4° C. fridge for 10 minutes. The remaining plasma solution was then transferred to the incubator and shaken at 37° C. The tube was retrieved from the fridge, centrifuged at 3000 rpm for 15 min and 100 μL of supernatant transferred to a glass vial insert for LC-MS analysis. 50 μL aliquots were processed as above at 1, […], 3, 6 and 24 hours and 5 μL was injected into triple quad MS system for analysis. Vancomycin derivatives: 200 μL of plasma and 160 μL of buffer were vortexed and shaken at 37° C. for 10 minutes. 40 μL of compound was then added and the sample was processed as above.

[4] = test system: Enterococcus faecium MDR Van A ATCC 51559; assay: MIC assay, E. faecium MDR Van A ATCC 51559; format: cell-based; conditions: 24 h incubation, visual reading
Summary of the method: as §1

MRSA (Strain ATCC 43300) = assay: Murine thigh infection model (MRSA); format: in vivo, Staphylococcus aureus; conditions: neutropenic CD1 mice
[5] = single subcutaneous dose 25 mg/kg

Row | Structure (SMILES) | Minimum Inhibitory Concentration (MIC) S. pneumoniae ATCC 700677 [1] | Minimum Inhibitory Concentration (MIC) Staph. aureus ATCC43300 [2] | % compound remaining after incubation in 50% human plasma ([3]; 0 h (reference time point)) [%] | % compound remaining after incubation in 50% human plasma ([3]; 1 h) [%] | % compound remaining after incubation in 50% human plasma ([3]; 3 h) [%] | % compound remaining after incubation in 50% human plasma ([3]; 6 h) [%] | % compound remaining after incubation in 50% human plasma ([3]; 24 h) [%] | Minimum Inhibitory Concentration (MIC) E. faecium ATCC51559 [4] | Average Reduction log Δcfu MRSA/thigh after 26 h (MRSA (Strain ATCC 43300); single subcutaneous dose 10 mg/kg) | Average Reduction log Δcfu MRSA/thigh after 26 h (MRSA (Strain ATCC 43300); [5]) | Average Reduction log Δcfu MRSA/thigh after 26 h (MRSA (Strain ATCC 43300); single subcutaneous dose 50 mg/kg) | Average Reduction log Δcfu MRSA/thigh after 26 h (MRSA (Strain ATCC 43300); single subcutaneous dose 200 mg/kg)
1 | CCCCCCCCCCC(=O)N[C@@H](CCCCN)C(=O)N[C@@H](CCCCNC(=O)[C@H]1NC(=O)[C@H]2NC(=O)[C@H](NC(=O)[C@@H]3NC(=O)[C@H](CC(N)=O)NC(=O)[C@H](NC(=O)[C@@H](CC(C)C)NC)[C@H](O)c4ccc(c(Cl)c4)Oc4cc3cc(c4O[C@@H]3O[C@H](CO)[C@@H](O)[C@H](O)[C@H]3O[C@H]3C[C@](C)(N)[C@H](O)[C@H](C)O3)Oc3ccc(cc3Cl)[C@H]2O)c2ccc(O)c(c2)-c2c(O)cc(O)cc21)C(=O)O [MCC_000080, nC10CO-K-K(Vanc)-OH] | xxx (xxx = 0.1-<1) | xxx (xxx = 0.1-<1) | 100 | 101 | 101 | 100 | 89 | x (x = >4) | xxx (xxx = 4-6) | xxxx (xxxx = >6) |  | 
2 | CNC(CC(C)C)C(=O)NC1C(=O)NC(CC(N)=O)C(=O)NC2C(=O)NC3C(=O)NC(C(=O)NC(C(=O)NCCCCC(NC(=O)C(CCCCN)NC(=O)C(CCCCN)NC(=O)c4ccc(Oc5ccccc5)cc4)C(=O)O)c4cc(O)cc(O)c4-c4cc3ccc4O)C(O)c3ccc(c(Cl)c3)Oc3cc2cc(c3OC2OC(CO)C(O)C(O)C2OC2CC(C)(N)C(O)C(C)O2)Oc2ccc(cc2Cl)C1O (stereo not shown) [MCC_000214, (4-PhO-PhCO)-KK-K(Vanc)-OH] | xxx (xxx = 0.1-<1) | xxx (xxx = 0.1-<1) | 100 | 101 |  | 107 | 111 | x (x = >4) |  |  | xxx (xxx = 4-6) | 
3 | CN[C@H](CC(C)C)C(=O)N[C@H]1C(=O)N[C@@H](CC(N)=O)C(=O)N[C@H]2C(=O)N[C@H]3C(=O)NC(C(=O)N[C@H](C(=O)O)c4cc(O)cc(O)c4-c4cc3ccc4O)[C@H](O)c3ccc(c(Cl)c3)Oc3cc2cc(c3OC2OC(CO)C(O)C(O)C2OC2CC(C)(N)C(O)C(C)O2)Oc2ccc(cc2Cl)[C@H]1O (stereo partly shown) [MCC_000095, vancomycin, reference compound] |  |  | 100 | 176 | 145 | 149 | 65 |  |  | x (x = 0-2) |  | xxx (xxx = 4-6)
